Measured values taken from BindingDB's records for doi:10.1021/jm00167a014 (Merrell Dow Research Institute, 1990).

Biological target: Peroxisomal N(1)-acetyl-spermine/spermidine oxidase (Rattus norvegicus)
Test: Tested for in vitro binding affinity against polyamine oxidase after intraperitoneal administration in the rat liver

| SMILES | Ki |
| --- | --- |
| C=C=CCNCCCNCCCCCCCCNCCCNCC=C=C | 2500 nM |
| C=C=CCNCCCNCCCNCC=C=C | 3000 nM |
